{"source": "paper PMC11473416", "about": "“Coumarin-chalcone derivatives as dual NLRP1 and NLRP3 inflammasome inhibitors targeting oxidative stress and inflammation in neurotoxin-induced HMC3 and BE(2)-M17 cell models of Parkinson's disease” (Frontiers in Aging Neuroscience, 2024)", "key": {"[1]": {"tested_on": "MPP^+-activated HMC3 cells", "experiment": "cell viability (MTT) in MPP^+-activated HMC3 cells", "assay_type": "cell-based", "conditions": "Homo sapiens; HMC3, compound 10 μM 8 h pre-treatment, then 4 mM MPP^+ 20 h; MPP^+ alone 63%; MPP^+-untreated = 100%", "method": "To examine anti-inflammatory potential of LM compounds, HMC3 cells were plated into six-well (2 × 10^5/well) dishes, grown for 20 h, and pre-treated with compounds (10 μM) for 8 h before 4 mM MPP^+ addition for 20 h. The cell viability was evaluated by MTT assay as described, and the release of nitric oxide (NO) in cell culture medium was examined by Griess reagent kit (Thermo Fisher Scientific) based on a classic protocol."}, "[2]": {"design": "method as in Chiu et al., 2021", "conditions": "in vivo pharmacokinetic assessment ref Chiu et al., 2021; cited from earlier work"}, "[3]": {"design": "method as in Huang C. C. et al., 2021", "conditions": "parallel artificial membrane permeability assay ref Huang C. C. et al., 2021; cited from earlier work"}, "NLRP3": {"tested_on": "NLRP3", "experiment": "Western blot NLRP3 in MPP^+-stimulated HMC3 cells", "assay_type": "cell-based, human", "conditions": "HMC3, 4 mM MPP^+ alone; untreated = 100%", "method": "(§1) HMC3 (2 × 10^5/6-well) or BE(2)-M17 (4 × 10^5/6-well) cells were lysed in buffer (composition: 50 mM Tris-HCl pH8.0, 2 mM EDTA pH8.0, 150 mM NaCl, 0.5% sodium deoxycholate, 0.1% SDS, 50 mM NaF, 1% NP40) containing the protease and/or phosphatase inhibitor cocktail (Sigma-Aldrich). After sonication, the lysates were centrifuged (12,000 × g for 10 min at 4°C) and protein concentrations determined (Bradford protein assay; Bio-Rad, Hercules, CA, USA). Aliquots of protein (20 μg) were separated by electrophoresis using 10%−12% SDS–polyacrylamide gel followed by transfer to a polyvinylidene fluoride (PVDF) membrane. […] The immune complexes were detected using horseradish peroxidase (HRP)-conjugated goat anti-mouse or goat anti-rabbit IgG antibody (1:5,000; GeneTex) and chemiluminescent HRP substrate (Millipore, Burlington, MA, USA). Immunoreactive bands were captured (ImageQuant™ LAS 4000, GE Healthcare, Chicago, IL, USA) and quantified (Multi Gauge V3.0 software, Fujifilm, Tokyo, Japan)."}, "IL-1β": {"tested_on": "IL-1β", "experiment": "Western blot IL-1β in MPP^+-stimulated HMC3 cells", "assay_type": "cell-based, human", "conditions": "HMC3, 4 mM MPP^+ alone; untreated = 100%", "method": "as §1"}, "BE(2)-M17 cells": {"tested_on": "BE(2)-M17 cells", "experiment": "cytotoxicity MTT assay in BE(2)-M17 cells", "assay_type": "cell-based, human", "conditions": "MPP^+ at 0.62 mM", "method": "(§2) Human HMC3 microglial (CRL-3304) and neuroblastoma BE(2)-M17 (CRL-2267) cells were obtained from American Type Culture Collection. BE(2)-M17 develops a better dopaminergic phenotype than SH-SY5Y when treated with retinoic acid to direct neuronal differentiation (Carvajal-Oliveros et al., [2022]). Cells were routinely maintained in Dulbecco's Modified Eagle Medium-Nutrient Mixture F12 (DMEM-F12) supplemented with 10% fetal bovine serum (FBS; Thermo Fisher Scientific, Waltham, MA, USA) in a 37°C incubator, with 95% relative humidity and 5% CO2 (NuAire, Plymouth, MN, USA).\n(§3) To evaluate cytotoxicity of LM compounds and MPP^+, HMC3 (1 × 10^4) or BE(2)-M17 (2 × 10^4) cells were plated on 96-well dishes, grown for 20 h, and treated with LM compounds (1–100 μM) or MPP^+ [HMC3: 0–8 mM; BE(2)-M17: 0–5 mM]. Next day, 20 μl of tetrazolium dye 3-(4,5-dimethylthiazol-2-yl)-2,5-diphenyltetrazolium bromide (MTT, 5 mg/ml; Sigma-Aldrich) was added to the cells at 37°C for 3 h. The resulted insoluble purple formazan products were dissolved by lysis buffer (composition: 10% Triton X-100, 0.1 N HCl, 18% isopropanol). The absorbance of the dissolved product at optical density (OD) 570 nm was read by using a FLx800 fluorescence microplate spectrophotometer (Bio-Tek, Winooski, VT, USA). The half maximal inhibitory concentration (IC50) of LM compounds was determined through the construction of a dose-response curve. MPP^+ at 4 mM (HMC3 cell viability: 65%−69%) or 0.62 mM [BE(2)-M17 cell viability: 79%−84%] was selected to induce inflammation for further experiments."}, "TNF-α": {"tested_on": "TNF-α", "experiment": "Western blot TNF-α in MPP^+-stimulated HMC3 cells", "assay_type": "cell-based, human", "conditions": "HMC3, 4 mM MPP^+ alone; untreated = 100%", "method": "as §1"}, "caspase-1": {"tested_on": "caspase-1", "experiment": "caspase-1 activity assay in MPP^+-treated BE(2)-M17 cells", "assay_type": "cell-based, human", "conditions": "BE(2)-M17, 0.62 mM MPP^+ alone; untreated = 100%", "method": "BE(2)-M17 cells were plated onto six-well (4 × 10^5/well) and treated with retinoic acid, LM compounds (10 μM), and MPP^+ as described. Cells were collected on day 7 and lysed by six freeze/thaw cycles. Types of substrates applied were: Ac-Tyr-Val-Ala-Asp-7-amino-4-trifluoromethyl coumarin (YVAD-AFC) for caspase-1, Ac-Val-Glu-Ile-Asp-7-amino-4-trifluoromethyl coumarin (VEID-AFC) for caspase-6 (BioVision, Milpitas, CA, USA), and Ac-Asp-Glu-Val-Asp-7-amido-4-methylcoumarin (DEVD-AMC) for caspase-3 (Sigma-Aldrich). The reaction mixtures were incubated for 1.5 h at 37°C per the manufacturer's instructions. The fluorescence intensity at 400 nm excitation and 505 nm emission (caspase-1 and caspase-6) or 360 nm excitation and 460 nm emission (caspase-3) wavelengths were recorded (BioTek FLx800)."}, "iNOS": {"tested_on": "iNOS", "experiment": "Western blot iNOS in MPP^+-stimulated HMC3 cells", "assay_type": "cell-based, human", "conditions": "HMC3, 4 mM MPP^+ alone; untreated = 100%", "method": "as §1"}, "HMC3 cells": {"tested_on": "HMC3 cells", "experiment": "cytotoxicity MTT assay in HMC3 cells", "assay_type": "cell-based, human", "conditions": "MPP^+ at 4 mM", "method": "as §2, §3"}}, "note": "Several values for one entry are separate records, joined by “and”; a condition that tells them apart may be missing. Equal entries are not always repeated. Where two headings read alike, the source gives them in different places."}
{"molecule": "Cc1ccc(/C=C/C(=O)c2c(O)c3ccccc3oc2=O)cc1", "note": "[LM-016]", "values": [{"measurement": "viability at 10 µM", "setting": "[1]", "result": "81 to 86", "unit": "%"}]}
{"molecule": "CN(C)c1ccc(/C=C/C(=O)c2c(O)c3ccccc3oc2=O)cc1", "note": "[LM-021, (E)-3-(3-(4-(dimethylamino)phenyl)acryloyl)-4-hydroxy-2H-chromen-2-one]", "values": [{"measurement": "bioavailability and BBB penetration potential", "setting": "[2]", "result": "good bioavailability and BBB penetration potential"}]}
{"molecule": "O=C(/C=C/c1ccccc1O)c1c(O)c2ccccc2oc1=O", "note": "[LM-036]", "values": [{"measurement": "bioavailability and BBB penetration potential", "setting": "[3]", "result": "good bioavailability and BBB penetration potential"}]}
{"molecule": "C[n+]1ccc(-c2ccccc2)cc1", "note": "[MPP^+, 1-methyl-4-phenyl pyridinium, reference compound]", "values": [{"measurement": "NLRP3 expression", "setting": "NLRP3", "result": 233, "unit": "%"}, {"measurement": "IL-1β expression", "setting": "IL-1β", "result": 326, "unit": "%"}, {"measurement": "cell viability", "setting": "BE(2)-M17 cells", "result": "79%−84% and 80%"}, {"measurement": "TNF-α expression", "setting": "TNF-α", "result": 223, "unit": "%"}, {"measurement": "caspase-1 activity", "setting": "caspase-1", "result": 112, "unit": "%"}, {"measurement": "iNOS expression", "setting": "iNOS", "result": 156, "unit": "%"}, {"measurement": "cell viability", "setting": "HMC3 cells", "result": 65, "unit": "%−69%"}]}
